The source made the active and inactive calls.
Columns and labels:
[1] = non-specific cell cytotoxicity, dose response, cytotoxicity control for PAX8 inhibitor project, plate reader, dry powder samples (AID 743021); assay type: functional, cell-based
[2] = target: 72 kDa type IV collagenase (Homo sapiens, UniProt P08253); test: Dose Response validation of uHTS RPN11 inhibitor hits using a MMP-2 Fluorescence assay.; assay type: functional
[3] = inhibitors of firefly luciferase expression or activity, dose response, H4 neuroglioma cells, luminescence (AID 1990); assay type: functional, cell-based
[4] = target: Paired box protein Pax-8 (Homo sapiens, UniProt Q06710); test: inhibitors of PAX8-driven TPO luciferase reporter, dose response, RMG-I cells, cherry-pick (AID 687027); assay type: functional, cell-based;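 also: luciferase reporter driven by Pax8 target thyroperoxidase promoter measured by SteadyGlo luminescence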
Paired box protein Pax-8, sequence (Q06710 whole entry): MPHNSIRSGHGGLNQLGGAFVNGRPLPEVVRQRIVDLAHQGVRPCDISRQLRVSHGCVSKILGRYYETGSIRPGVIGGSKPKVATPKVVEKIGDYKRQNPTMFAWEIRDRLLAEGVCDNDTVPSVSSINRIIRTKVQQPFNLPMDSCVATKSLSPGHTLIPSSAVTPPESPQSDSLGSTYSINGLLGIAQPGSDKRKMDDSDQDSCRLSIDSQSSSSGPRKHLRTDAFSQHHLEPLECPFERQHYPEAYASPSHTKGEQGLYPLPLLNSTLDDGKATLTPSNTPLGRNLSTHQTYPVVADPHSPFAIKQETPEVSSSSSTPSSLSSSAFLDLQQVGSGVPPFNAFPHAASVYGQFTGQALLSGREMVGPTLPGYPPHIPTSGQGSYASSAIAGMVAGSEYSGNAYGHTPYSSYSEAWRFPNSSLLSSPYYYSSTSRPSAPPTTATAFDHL

[5] = Counterscreen for activators of the function of SWI/SNF related, matrix associated, actin dependent regulator of chromatin, subfamily a, member 2 (SMARCA2, BRM): Luminescence-based cell-based high throughput dose response assay to identify non-selective compounds using the VP16 reporter assay.; assay type: functional
[6] = inhibitors of SNCA 5'UTR-driven reporter translation, confirmation, H4 neuroglioma cells, luminescence (AID 1988); assay type: functional, cell-based
[7] = Luminescence Cell-Based Dose Response HTS to Identify Inhibitors of 5'UTR Stem-Loop Driven Prion Protein mRNA Translation in H4 Neuroglioblastoma Cells. [Related pubchem assays: 1827 (Project Summary), 1813 (Primary HTS)]; assay type: functional
[8] = target: 26S proteasome non-ATPase regulatory subunit 14 (Homo sapiens, UniProt O00487); test: inhibition of proteasome subunit RPN11 – biochemical, fluorescence polarization, uHTS hits, confirmation (AID 602368); assay type: functional
26S proteasome non-ATPase regulatory subunit 14, sequence (O00487 whole entry): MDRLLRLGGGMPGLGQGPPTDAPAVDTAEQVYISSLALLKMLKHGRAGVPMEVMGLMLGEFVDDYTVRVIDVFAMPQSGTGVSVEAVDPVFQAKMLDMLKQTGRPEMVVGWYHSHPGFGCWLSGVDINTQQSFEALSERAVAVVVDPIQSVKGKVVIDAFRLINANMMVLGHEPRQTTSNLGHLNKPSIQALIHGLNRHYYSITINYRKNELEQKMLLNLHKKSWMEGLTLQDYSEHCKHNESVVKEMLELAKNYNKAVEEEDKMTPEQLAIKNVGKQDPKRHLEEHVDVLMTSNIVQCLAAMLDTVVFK

[9] = target: SWI/SNF-related matrix-associated actin-dependent regulator of chromatin subfamily A member 2 (Homo sapiens, UniProt P51531); test: Luminescence-based cell-based high throughput dose response assay to identify activators of the function of SWI/SNF related, matrix associated, actin dependent regulator of chromatin, subfamily a, member 2 (SMARCA2, BRM).; assay type: functional
SWI/SNF-related matrix-associated actin-dependent regulator of chromatin subfamily A member 2, sequence (P51531 whole entry): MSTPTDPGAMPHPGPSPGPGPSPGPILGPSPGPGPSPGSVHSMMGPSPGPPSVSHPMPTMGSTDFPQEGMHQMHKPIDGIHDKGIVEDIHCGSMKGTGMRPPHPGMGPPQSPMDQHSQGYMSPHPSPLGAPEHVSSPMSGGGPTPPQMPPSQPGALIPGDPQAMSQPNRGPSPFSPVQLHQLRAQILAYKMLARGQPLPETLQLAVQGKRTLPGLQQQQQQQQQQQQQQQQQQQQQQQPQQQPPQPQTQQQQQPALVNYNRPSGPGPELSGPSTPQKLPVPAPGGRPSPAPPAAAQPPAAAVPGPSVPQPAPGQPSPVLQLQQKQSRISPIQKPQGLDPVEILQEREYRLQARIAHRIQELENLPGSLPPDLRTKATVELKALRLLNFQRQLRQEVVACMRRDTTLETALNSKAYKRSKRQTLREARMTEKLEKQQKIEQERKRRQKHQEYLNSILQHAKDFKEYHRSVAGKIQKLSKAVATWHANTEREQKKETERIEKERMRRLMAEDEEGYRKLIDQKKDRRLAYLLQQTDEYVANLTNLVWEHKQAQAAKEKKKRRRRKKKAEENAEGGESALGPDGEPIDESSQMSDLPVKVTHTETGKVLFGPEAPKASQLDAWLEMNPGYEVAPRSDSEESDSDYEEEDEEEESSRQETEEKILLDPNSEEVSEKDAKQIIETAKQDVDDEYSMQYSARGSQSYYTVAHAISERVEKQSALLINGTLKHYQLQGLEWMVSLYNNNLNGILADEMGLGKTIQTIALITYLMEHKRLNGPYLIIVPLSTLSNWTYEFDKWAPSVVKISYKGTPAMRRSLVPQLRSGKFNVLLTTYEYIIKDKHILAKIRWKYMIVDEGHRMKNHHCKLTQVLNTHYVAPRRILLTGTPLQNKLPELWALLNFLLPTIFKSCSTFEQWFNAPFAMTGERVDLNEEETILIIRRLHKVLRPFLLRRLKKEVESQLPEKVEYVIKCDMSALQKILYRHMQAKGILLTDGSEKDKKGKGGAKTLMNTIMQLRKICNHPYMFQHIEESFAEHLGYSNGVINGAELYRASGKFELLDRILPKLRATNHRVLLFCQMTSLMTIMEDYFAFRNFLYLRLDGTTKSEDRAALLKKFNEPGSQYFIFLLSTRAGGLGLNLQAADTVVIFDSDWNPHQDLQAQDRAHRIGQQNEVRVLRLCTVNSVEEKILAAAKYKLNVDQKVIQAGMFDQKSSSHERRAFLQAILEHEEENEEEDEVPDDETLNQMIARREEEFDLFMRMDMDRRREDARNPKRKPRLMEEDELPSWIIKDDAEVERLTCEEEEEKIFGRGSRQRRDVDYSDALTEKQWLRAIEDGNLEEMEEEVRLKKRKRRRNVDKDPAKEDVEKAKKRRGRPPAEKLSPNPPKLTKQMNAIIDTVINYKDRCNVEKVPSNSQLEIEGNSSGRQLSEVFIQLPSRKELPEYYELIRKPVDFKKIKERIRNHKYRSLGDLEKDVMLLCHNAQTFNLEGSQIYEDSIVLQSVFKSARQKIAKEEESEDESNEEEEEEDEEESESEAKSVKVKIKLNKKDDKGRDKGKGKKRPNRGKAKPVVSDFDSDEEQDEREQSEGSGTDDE

[10] = target: Prothrombin (Bos taurus, UniProt P00735); test: thrombin inhibition, dose response, biochemical, fluorescence polarization, uHTS hits (AID 602369); assay type: functional
[11] = target: Protein disulfide-isomerase (Homo sapiens, UniProt P07237); test: PDI inhibitors, insulin aggregation turbidity, dose response, biochemical, absorbance, cherry-picked samples (AID 602350); assay type: functional
Protein disulfide-isomerase, sequence (P07237 whole entry): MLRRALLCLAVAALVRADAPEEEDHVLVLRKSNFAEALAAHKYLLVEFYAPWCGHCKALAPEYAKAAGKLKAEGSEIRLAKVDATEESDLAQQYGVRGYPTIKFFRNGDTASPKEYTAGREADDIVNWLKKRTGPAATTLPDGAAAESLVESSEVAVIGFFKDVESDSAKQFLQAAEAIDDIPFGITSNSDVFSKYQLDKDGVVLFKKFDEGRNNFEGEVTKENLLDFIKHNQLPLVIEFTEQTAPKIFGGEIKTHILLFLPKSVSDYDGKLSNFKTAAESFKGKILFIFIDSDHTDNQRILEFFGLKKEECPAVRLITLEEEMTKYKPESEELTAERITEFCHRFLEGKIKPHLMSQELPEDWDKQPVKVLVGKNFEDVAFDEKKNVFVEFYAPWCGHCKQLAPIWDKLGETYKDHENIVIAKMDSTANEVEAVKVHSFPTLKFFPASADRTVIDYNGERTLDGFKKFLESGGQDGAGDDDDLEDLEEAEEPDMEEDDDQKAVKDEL

[12] = Counterscreen for antagonists of the orexin 1 receptor (OX1R; HCRTR1): Fluorescence-based cell-based high throughput dose response assay to identify antagonists of the parental CHO cell line. [Related pubchem assays (depositor defined):AID434989, AID435008, AID463079, AID485270, AID492963, AID492964, AID492965, AID493232, AID504699, AID504701]; assay type: functional
[13] = system: CHO-K1; test: Counterscreen for antagonists of the orexin 1 receptor (OX1R; HCRTR1): Homogeneous time resolved fluorescence (HTRF)-based cell-based dose response assay to identify antagonists of the parental CHO-K1 cell line. [Related pubchem assays (depositor defined):AID434989, AID435008, AID463079, AID485270, AID492963, AID492964, AID492965, AID493232, AID504699, AID504701]; assay type: functional; settings: Cricetulus griseus;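 also: potency for inhibition of ATP-stimulated IP1 production as antagonists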
[14] = target: T1, Orexin receptor type 2 (Homo sapiens, UniProt O43614); test: Counterscreen assay for antagonists of the orexin 1 receptor (OX1R; HCRTR1): Homogeneous Time Resolved Fluorescence (HTRF)-based cell-based dose response assay for antagonists of the orexin 2 receptor (OX2R; HCRTR2), run by assay provider.; assay type: functional
T1 sequence (O43614 whole entry): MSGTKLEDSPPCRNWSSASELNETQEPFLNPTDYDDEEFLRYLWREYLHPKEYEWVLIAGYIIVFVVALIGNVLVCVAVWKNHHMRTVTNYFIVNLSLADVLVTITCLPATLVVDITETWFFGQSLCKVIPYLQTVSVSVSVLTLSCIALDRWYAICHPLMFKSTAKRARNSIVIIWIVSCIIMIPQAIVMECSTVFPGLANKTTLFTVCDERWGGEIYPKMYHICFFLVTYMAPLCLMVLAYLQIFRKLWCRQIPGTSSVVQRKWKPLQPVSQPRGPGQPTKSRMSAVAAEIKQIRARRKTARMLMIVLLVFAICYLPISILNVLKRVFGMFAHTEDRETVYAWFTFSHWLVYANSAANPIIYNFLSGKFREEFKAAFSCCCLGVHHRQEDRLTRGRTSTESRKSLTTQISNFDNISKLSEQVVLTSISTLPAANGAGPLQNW

[15] = target: T1, Orexin receptor type 2; test: Counterscreen assay for antagonists of the orexin 1 receptor (OX1R; HCRTR1): Fluorescence-based cell-based dose response assay for antagonists of the orexin 2 receptor (OX2R; HCRTR2), run by assay provider.; assay type: functional
[16] = target: T2, Orexin/Hypocretin receptor type 1 (Homo sapiens, UniProt O43613); test: Homogeneous Time Resolved Fluorescence (HTRF)-based cell-based high throughput dose response assay for antagonists of the orexin 1 receptor (OX1R; HCRTR1). [Related pubchem assays (depositor defined):AID434989, AID435008, AID463079, AID485270, AID492963, AID492964, AID492965, AID493232, AID504717, AID504718]; assay type: functional
T2 sequence (O43613 whole entry): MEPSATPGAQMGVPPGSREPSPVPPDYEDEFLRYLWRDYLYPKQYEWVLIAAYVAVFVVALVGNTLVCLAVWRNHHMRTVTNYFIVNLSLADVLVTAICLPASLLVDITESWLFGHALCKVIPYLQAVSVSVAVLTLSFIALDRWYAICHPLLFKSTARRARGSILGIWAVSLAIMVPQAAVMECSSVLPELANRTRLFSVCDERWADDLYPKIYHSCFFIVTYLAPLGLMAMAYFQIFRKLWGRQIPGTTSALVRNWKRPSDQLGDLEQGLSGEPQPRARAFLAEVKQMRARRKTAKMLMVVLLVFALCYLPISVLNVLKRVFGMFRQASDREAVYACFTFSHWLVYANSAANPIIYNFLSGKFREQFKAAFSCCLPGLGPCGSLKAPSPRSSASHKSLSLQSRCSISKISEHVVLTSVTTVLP

[17] = target: T2, Orexin/Hypocretin receptor type 1; test: Fluorescence-based cell-based high throughput dose response assay for antagonists of the orexin 1 receptor (OX1R; HCRTR1). [Related pubchem assays (depositor defined):AID434989, AID435008, AID463079, AID485270, AID492963, AID492964, AID492965, AID493232, AID504717, AID504718]; assay type: functional
[18] = target: T3, Caspase-3 (Homo sapiens, UniProt P42574); test: SAR Analysis of small molecule inhibitors of Sentrin-specific proteases (SENPs) using a Caspase-3 Selectivity assay. [Related pubchem assays (depositor defined):AID2540, AID2599, AID434973, AID489001]; assay type: functional
T3 sequence (P42574 whole entry): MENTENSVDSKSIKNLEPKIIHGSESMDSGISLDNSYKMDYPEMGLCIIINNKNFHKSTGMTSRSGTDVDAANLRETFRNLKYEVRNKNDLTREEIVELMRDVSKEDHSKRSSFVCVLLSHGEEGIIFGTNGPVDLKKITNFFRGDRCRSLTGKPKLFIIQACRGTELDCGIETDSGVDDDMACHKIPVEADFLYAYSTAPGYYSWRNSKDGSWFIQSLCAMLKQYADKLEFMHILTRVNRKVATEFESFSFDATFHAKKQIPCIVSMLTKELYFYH

[19] = target: T4, Sentrin-specific protease 6 (Homo sapiens, UniProt Q9GZR1); test: SAR Analysis of small molecule inhibitors of Sentrin-specific protease 6 (SENP6) using a Luminescent assay. [Related pubchem assays (depositor defined):AID2582, AID2599]; assay type: functional
T4 sequence (Q9GZR1 whole entry): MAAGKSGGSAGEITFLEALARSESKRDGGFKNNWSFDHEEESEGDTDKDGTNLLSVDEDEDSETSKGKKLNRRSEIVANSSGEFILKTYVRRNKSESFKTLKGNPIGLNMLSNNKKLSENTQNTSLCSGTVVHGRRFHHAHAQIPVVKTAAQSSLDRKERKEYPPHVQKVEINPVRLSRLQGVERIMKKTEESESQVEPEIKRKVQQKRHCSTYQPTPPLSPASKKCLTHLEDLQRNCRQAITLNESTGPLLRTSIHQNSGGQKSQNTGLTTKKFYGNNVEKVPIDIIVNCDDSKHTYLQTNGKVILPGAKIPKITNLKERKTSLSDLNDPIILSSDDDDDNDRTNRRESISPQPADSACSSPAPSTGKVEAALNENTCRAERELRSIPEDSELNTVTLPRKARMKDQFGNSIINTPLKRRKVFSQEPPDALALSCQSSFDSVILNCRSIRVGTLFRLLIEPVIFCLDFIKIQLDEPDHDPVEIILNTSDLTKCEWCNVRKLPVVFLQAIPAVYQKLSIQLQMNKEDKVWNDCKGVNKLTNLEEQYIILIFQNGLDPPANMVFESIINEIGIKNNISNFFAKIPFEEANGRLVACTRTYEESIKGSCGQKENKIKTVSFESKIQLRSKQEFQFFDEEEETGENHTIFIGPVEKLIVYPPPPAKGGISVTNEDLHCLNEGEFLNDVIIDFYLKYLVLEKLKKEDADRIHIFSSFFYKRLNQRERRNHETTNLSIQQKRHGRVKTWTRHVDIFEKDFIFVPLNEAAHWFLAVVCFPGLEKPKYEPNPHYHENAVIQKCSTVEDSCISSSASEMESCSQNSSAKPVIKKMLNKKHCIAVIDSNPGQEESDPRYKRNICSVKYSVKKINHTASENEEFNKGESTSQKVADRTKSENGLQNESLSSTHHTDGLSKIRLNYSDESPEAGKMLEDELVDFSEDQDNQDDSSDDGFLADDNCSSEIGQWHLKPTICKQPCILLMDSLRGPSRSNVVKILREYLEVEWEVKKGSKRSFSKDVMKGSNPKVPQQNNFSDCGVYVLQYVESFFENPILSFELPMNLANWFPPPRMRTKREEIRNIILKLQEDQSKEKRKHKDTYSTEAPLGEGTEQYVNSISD

[20] = target: T4, Sentrin-specific protease 6; test: SENP6 protease inhibitors, SAR follow-up, biochemical, luminescence, set 2 (AID 588598); assay type: functional
[21] = target: T5, Sentrin-specific protease 8 (Homo sapiens, UniProt Q96LD8); test: SENP8 protease inhibitors, SAR follow-up, biochemical, luminescence, set 2 (AID 588601); assay type: functional
T5 sequence (Q96LD8 whole entry): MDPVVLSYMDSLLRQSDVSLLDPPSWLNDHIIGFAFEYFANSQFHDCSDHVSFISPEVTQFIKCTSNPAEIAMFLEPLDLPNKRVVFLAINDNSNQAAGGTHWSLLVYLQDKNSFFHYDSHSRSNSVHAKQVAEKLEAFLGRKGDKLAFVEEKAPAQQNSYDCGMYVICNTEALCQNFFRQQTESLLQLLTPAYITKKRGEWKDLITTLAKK

[22] = target: T6, Sentrin-specific protease 7 (Homo sapiens, UniProt Q9BQF6); test: SENP7 protease inhibitors, SAR follow-up, biochemical, luminescence (AID 504497); assay type: functional
T6 sequence (Q9BQF6 whole entry): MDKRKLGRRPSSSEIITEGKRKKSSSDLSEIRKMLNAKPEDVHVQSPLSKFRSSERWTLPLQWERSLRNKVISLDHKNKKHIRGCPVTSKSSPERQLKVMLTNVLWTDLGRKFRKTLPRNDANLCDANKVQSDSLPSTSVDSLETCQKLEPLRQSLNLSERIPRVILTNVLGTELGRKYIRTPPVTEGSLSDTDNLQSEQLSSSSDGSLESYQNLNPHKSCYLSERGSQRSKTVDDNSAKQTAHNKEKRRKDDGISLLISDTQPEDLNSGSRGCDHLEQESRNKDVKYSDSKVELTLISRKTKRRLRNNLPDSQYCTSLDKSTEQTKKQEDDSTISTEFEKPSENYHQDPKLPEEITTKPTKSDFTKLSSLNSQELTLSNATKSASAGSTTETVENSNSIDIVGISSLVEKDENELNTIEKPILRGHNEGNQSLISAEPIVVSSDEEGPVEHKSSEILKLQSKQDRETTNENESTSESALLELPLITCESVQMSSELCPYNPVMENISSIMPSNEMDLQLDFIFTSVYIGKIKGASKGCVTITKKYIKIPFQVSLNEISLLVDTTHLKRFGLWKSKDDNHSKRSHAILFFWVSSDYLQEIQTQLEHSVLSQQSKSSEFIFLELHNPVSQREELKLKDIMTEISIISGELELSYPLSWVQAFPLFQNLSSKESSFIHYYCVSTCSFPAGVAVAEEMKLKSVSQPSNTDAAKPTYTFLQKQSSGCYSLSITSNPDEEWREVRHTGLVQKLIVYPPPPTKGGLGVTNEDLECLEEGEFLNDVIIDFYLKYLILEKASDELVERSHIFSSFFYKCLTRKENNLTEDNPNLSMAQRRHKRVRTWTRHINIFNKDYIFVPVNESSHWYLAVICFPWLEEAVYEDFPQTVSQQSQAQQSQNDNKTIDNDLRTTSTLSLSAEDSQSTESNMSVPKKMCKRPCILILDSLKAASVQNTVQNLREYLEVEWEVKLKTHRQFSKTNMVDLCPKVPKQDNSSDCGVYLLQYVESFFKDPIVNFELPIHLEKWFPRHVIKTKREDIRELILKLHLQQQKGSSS

[23] = target: T6, Sentrin-specific protease 7; test: SENP7 protease inhibitors, SAR follow-up, biochemical, luminescence, set 2 (AID 588600); assay type: functional
[24] = target: T3, Caspase-3; test: caspase-3 inhibitors as off-family protease, SAR follow-up, selectivity assay for SENP protease inhibitor project, biochemical, luminescence, set 2 (AID 588599); assay type: functional
[25] = target: T5, Sentrin-specific protease 8; test: SENP8 protease inhibitors, SAR follow-up, biochemical, luminescence (AID 504501); assay type: functional
[26] = target: SRSF protein kinase 1 (Homo sapiens, UniProt Q96SB4); assay type: functional;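 also: measured as one member of a kinome-wide kinase profiling panel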
SRSF protein kinase 1, sequence (Q96SB4 whole entry): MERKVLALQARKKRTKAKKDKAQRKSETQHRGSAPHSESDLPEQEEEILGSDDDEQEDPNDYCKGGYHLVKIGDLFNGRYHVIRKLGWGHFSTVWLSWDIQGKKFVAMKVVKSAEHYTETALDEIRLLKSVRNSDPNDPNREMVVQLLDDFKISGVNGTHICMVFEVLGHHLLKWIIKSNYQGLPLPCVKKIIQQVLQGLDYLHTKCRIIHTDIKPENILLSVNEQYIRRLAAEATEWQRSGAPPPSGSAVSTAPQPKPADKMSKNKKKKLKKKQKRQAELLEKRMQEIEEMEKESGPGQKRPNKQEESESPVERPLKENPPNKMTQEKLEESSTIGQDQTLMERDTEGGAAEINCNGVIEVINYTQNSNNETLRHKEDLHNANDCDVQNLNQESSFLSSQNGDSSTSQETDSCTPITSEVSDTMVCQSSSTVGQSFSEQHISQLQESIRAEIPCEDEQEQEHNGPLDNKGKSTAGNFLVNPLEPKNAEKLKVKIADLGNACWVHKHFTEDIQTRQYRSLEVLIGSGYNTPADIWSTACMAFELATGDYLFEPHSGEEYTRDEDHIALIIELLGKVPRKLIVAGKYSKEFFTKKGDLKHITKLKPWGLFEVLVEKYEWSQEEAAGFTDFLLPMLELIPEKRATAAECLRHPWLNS

[27] = target: Aurora kinase B (Homo sapiens, UniProt Q96GD4); assay type: functional
Aurora kinase B, sequence (Q96GD4 whole entry): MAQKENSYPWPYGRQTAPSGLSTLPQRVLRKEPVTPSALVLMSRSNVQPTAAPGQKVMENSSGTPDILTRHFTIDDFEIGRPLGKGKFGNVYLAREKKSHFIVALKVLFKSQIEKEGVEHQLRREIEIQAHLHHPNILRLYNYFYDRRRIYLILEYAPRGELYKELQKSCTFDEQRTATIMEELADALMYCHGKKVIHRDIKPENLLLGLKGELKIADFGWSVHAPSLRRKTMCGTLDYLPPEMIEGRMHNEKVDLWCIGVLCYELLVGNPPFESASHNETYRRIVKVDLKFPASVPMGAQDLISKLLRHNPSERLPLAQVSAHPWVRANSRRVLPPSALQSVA

[28] = target: Mitogen-activated protein kinase kinase kinase kinase 4 (Homo sapiens, UniProt O95819); assay type: functional

SMILES: COc1ccc(-n2nc3c(N4CCC(C(=O)NCc5cccc(C)c5)CC4)nnc(C)c3c2C)cc1
- AC50 [1]: 23.8 µM (active)
- IC50 [2]: > 100 µM (inactive)
- EC50 [3]: 9.83 µM (active)
- AC50 [4]: 5.58 µM (active)
- EC50 [5]: > 91.1 µM (inactive)
- EC50 [6]: 6.99 µM (active)
- EC50 [7]: 12 µM (active)
- IC50 [8]: 29.3 µM (active)
- EC50 [9]: > 91.1 µM (inactive)
- IC50 [10]: 48.7 µM (active)

SMILES: COc1ccc(N2CCN(CC(=O)c3ccc(O)c(C)c3O)CC2)cc1
- AC50 [11]: 19.5 µM (active)

SMILES: CCSc1ccc([C@@H]2[C@H]3C(=O)N(CC)C(=O)[C@H]3[C@]3(C(=O)OC)CCCCN23)cc1OC
- IC50 [12]: > 49.8 µM (inactive)
- IC50 [13]: > 66.3 µM (inactive)
- IC50 [14]: > 50 µM (inactive)
- IC50 [15]: 6.4 µM (active)
- IC50 [16]: 2.65 µM (active)
- IC50 [17]: 12.4 µM (inactive)

SMILES: COc1cc(/C=C/c2noc(-c3ccccc3O)n2)ccc1OCC(=O)O
- IC50 [18]: 54 µM (active)
- IC50 [19]: > 99 µM (inactive)
- IC50 [20]: 21.9 µM (active)
- IC50 [21]: 46.3 µM (active)
- IC50 [22]: 18 µM (active)
- IC50 [23]: 72.3 µM (active)
- IC50 [24]: 28.2 µM (active)
- IC50 [25]: > 99 µM (inactive)

SMILES: COc1cccc(-n2nc(C)c3c(=O)c4cc(Cl)ccc4n(O)c32)c1
- Ki [26]: 7.94 µM (active)
- Ki [27]: 1.26 µM (active)
- Ki [28]: 6.31 µM (active)

From ChEMBL document CHEMBL1201862, “PubChem BioAssay data set” (2004)
